Results taken from patent publication US6407132B1, “Substituted imidazole derivatives and their use as histamine H3 receptor ligands” (James Black Foundation Limited, priority 1997, dated 2002).

Tests used:
[1] = biological target: T1, Histamine H3 receptor (Cavia porcellus, UniProt Q9JI35); assay: ileal longitudinal muscle, myenteric plexus functional assay (shift of R-(α)-methylhistamine E/[A] curves, Schild); type: cell-based; design: the longitudinal muscle layer and adhering myenteric plexus was teased away; from tissue; host or cells: guinea pig ileal longitudinal muscle with myenteric plexus; details: guinea pig ileum longitudinal muscle myenteric plexus, electrically stimulated; antagonism of R-(α)-methylhistamine; typical variance ±0.15 log units; read-out: pKB (functional assay) - ileum (converted)
Description: The biological activity of the compounds of the examples was measured using the ileal longitudinal muscle, myenteric plexus assay described by Paton and Aboo Zar (J. Physiol. 1968, 194, 13-33). Male Dunkin-Hartley guinea pigs (250-300 g) were employed. Briefly, a 50 cm portion of ileum proximal to the caecum was removed, after discarding the terminal 20 cm. Ileal segments (3 cm) were cleaned by passing Krebs-Henseleit buffer containing 3 μM mepyramine gently through the ileum using a Pasteur pipette (size: 13.8 cm length, 0.65 cm diameter). To avoid unnecessary damage to the tissue, Krebs-Henseleit buffer was passed through the ileal segment, while it was lying horizontally on a petri dish. Therefore, the ileum was not over-distended and the buffer flowed through with ease. Each segment was then passed over a Pasteur pipette and the longitudinal muscle layer and adhering myenteric plexus was teased away using moist cotton wool, by stroking tangentially away from the mesenteric attachment. The tissues were suspended in 20 ml organ baths containing Krebs-Henseleit buffer at 37±1° C. and gassed with 95% CO2/5% O2. The tissues were ligated to two parallel stainless steel wires, situated between two platinum electrodes (0.76 cm length, 0.06 cm diameter). All measurements were recorded isometrically (Grass FTO3 transducer). Following an initial loading tension of 1 g, the tissues were stimulated with electrical pulses at a frequency of 0.1 Hz and a pulse duration of 0.5 msec, as described by Kosterlitz & Watt (Br. J. Pharmacol. 1968, 266-276). Initially, the tissues were stimulated at supramaximal (1.3 fold times maximal) voltage for a period of 30 min and then the tissues were washed and re-stimulated. A “sighter dose” of the selective histamine H3-receptor agonist, R-(α)-methylhistamine (0.3 μM) (Arrang et al. Nature, 1987, 117-123), was administered. Upon generation of response, the “sighter dose” was removed from the tissues by “washout” (6 washes over 60 min) and during this period the electrical stimulation was switched off. The tissues were then re-stimulated and allowed to stabilise prior to the addition of drug treatments, which were allocated on a randomised block basis to the organ baths. Following the incubation period, a single cumulative E/[A] curve was obtained. The experimental E/[A] curve data was expressed as the percentage inhibition of the peak height of electrically-stimulated contraction. Antagonist affinity values were calculated from the degree of rightward shift of the R-(α)-methylhistamine E/[A] curves using Schild's methods (Arunlakshana & Schild Br. J. Pharmacol. 1959, 48-58). Typical variance in this assay is ±0.15 log units.

[2] = biological target: T1, Histamine H3 receptor; assay: Histamine H3 Radioligand Binding Assay - Guinea Pig Cortex ([3H]-R-α-methylhistamine); design: The cortex was dissected, weighed and homogenised in ice-cold 20 mM Hepes-NaOH buffer; from tissue; host or cells: guinea pig brain cortex membranes; details: guinea pig cortex membranes; 0.1 nM [3H]-R-α-methylhistamine; typical variance ±0.12 log units; read-out: pKI (binding assay) - cortex (converted)
Description: Histamine H3 Radioligand Binding Assay—Guinea Pig Cortex
Male Dunkin Hartley guinea pigs (200-300 g) were used. The whole brain was removed and immediately placed in ice-cold 20 mM Hepes-NaOH buffer (pH7.4 at 21±3° C.). The cortex was dissected, weighed and homogenised in ice-cold 20 mM Hepes-NaOH buffer (pH7.4 at 21±3° C.) (50 ml/guinea-pig cortex) using a polytron (Kinematica AG, PT-DA 3020/2TS, 3×3s). The homogenate was centrifuged at 100×g for 5 min and the supernatants pooled and stored at 4° C. The pellets were rehomogenised in fresh ice-cold buffer (80 ml) and recentrifuged (100×g for 5 min). The supernatants were pooled and pellets rehomogenised and recentrifuged (100×g for 5 min). All supernatants were pooled and centrifuged at 39,800×g for 12 min at 4° C. The final pellet was resuspended in 20 mM Hepes-NaOH buffer (pH7.4 at 21±3° C.) to a tissue concentration of 7.5 mg.ml^−1, using a teflon-in-glass homogeniser.
Incubation Conditions and Data Analysis
These were essentially identical to those used for the guinea pig ileum myenteric plexus assay described above, except that the final assay concentration of [^3H]-R-α-methylhistamine was 0.1 nM. Typical variance in this binding assay is ±0.12 log units.

[3] = biological target: T1, Histamine H3 receptor; assay: Histamine H3 Radioligand Binding Assay - Guinea Pig Ileum ([3H]-R-α-methylhistamine); design: The cortex was dissected, weighed and homogenised in ice-cold 20 mM Hepes-NaOH buffer; from tissue; host or cells: guinea pig brain cortex membranes; details: guinea pig ileum longitudinal muscle myenteric plexus membranes; 3 nM [3H]-R-α-methylhistamine; typical variance 0.12 log units; read-out: pKI (binding assay) - ileum (converted)
Description: Histamine H3 Radioligand Binding Assay—Guinea Pig Ileum
Male Dunkin Hartley guinea pigs (200-300 g) were used. The small intestine was rapidly removed (cut ˜5 cm from caecum and 5 cm from stomach) and placed in ice-cold 20 mM Hepes-NaOH buffer (pH7.4 at 21±3° C.). The tissue was cut into ˜10 cm segments, flushed through with ice-cold 20 mM Hepes-NaOH buffer and placed in a beaker containing fresh buffer at 4° C. 10 cm segments of ileum were threaded onto a glass pipette and the longitudinal muscle myenteric plexus was peeled away from the circular muscle using damp cotton-wool. […]
Guinea pig ileum longitudinal muscle myenteric plexus membranes (400μl) were incubated for 165 min at 21±3° C. in a final volume of 500 μl with 20 mM Hepes-NaOH buffer containing [^3H]-R-α-methylhistamine (50 μl; 3 nM) and competing compound. […] The filters were washed (3×3 ml) with ice-cold 50 mM Tris-HCl (pH6.9 at 21±3° C.), transferred into scintillation vials, 5 ml liquid scintillation cocktail was added and after 4 hours the bound radioactivity was determined by counting (4 min) in a Beckman liquid scintillation counter.
Data are analysed using GraphPad prism and the general equation for a competition curve with variable Hill slope (nH). […]
KD is the equilibrium dissociation constant for the radioligand determined by saturation experiments. […]

T1 sequence (Q9JI35 whole entry): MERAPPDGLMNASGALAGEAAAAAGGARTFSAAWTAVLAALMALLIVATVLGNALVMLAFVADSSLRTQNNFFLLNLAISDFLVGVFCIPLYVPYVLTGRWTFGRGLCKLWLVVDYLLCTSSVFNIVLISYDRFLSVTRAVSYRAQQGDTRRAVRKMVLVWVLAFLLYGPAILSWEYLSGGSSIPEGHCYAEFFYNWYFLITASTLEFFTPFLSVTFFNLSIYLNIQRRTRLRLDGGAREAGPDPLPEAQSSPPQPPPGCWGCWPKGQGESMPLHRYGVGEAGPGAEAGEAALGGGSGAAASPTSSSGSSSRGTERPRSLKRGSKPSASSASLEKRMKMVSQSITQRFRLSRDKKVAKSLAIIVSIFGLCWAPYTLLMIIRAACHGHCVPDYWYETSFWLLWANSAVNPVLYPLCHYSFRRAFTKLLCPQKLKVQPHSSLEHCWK

O=S(=O)(NCc1ccc(Cc2c[nH]cn2)cc1)c1ccc2ccccc2c1 [Example 1]
Kb [1]: 0.229 µM
Ki [2]: 0.324 µM
Ki [3]: 0.339 µM

O=S(=O)(Cc1ccc(Cl)cc1)NCCc1ccc(Cc2c[nH]cn2)cc1 [Example 7, C-(4-Chloro-phenyl)-N-{2-[4-(1H-imidazol-4-ylmethyl)-phenyl]-ethyl}-methanesulfonamide]
Kb [1]: 0.955 µM
Ki [2]: 0.288 µM

O=S(=O)(Cc1ccc(Cl)cc1)NCc1cccc(Cc2c[nH]cn2)c1 [Example 6, C-(4-Chloro-phenyl)-N-[3-(1H-imidazol-4-ylmethyl)-benzyl]-methanesulfonamide]
Ki [2]: 0.372 µM

O=S(=O)(Cc1ccc(Cl)cc1)NCc1ccc(Cc2c[nH]cn2)cc1 [Example 2, C-(4-Chlorophenyl)-N-[4-(1H-imidazol-4-ylmethyl)-benzyl]-methanesulfonamide]
Kb [1]: 0.0708 µM
Ki [2]: 0.0288 µM
Ki [3]: 0.141 µM

O=S(=O)(Cc1ccc(Cl)cc1)Nc1ccc(Cc2c[nH]cn2)cc1 [Example 4, C-(4-Chloro-phenyl)-N-[4-(1H-imidazol-4-ylmelhyl)-phenyl]-methanesulfonamide]
Kb [1]: 0.407 µM
Ki [2]: 0.0933 µM

O=S(=O)(Cc1ccc(Cl)cc1)Nc1ccc(-c2c[nH]cn2)cc1 [Example 5, C-(4-Chloro-phenyl)-N-[4-(1H-imidazol-4-yl)-pheriyl]-methanesulfonamide]
Ki [2]: 1.41 µM

O=S(=O)(NCc1ccc(Cl)cc1)NCc1ccc(Cc2c[nH]cn2)cc1 [Example 3, N-(4-Chloro-benzyl)-N′-[4-(1H-imidazol-4-ylmethyl)-benzyl]-sulfamide]
Kb [1]: 0.112 µM
Ki [2]: 0.0158 µM
